Measured values reported in PubChem BioAssay (NCI).
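A five-concentration, 48-hour dose response in 96-well plates underlies each endpoint, interpolated linearly between surrounding concentrations. TGI denotes the concentration required for complete inhibition of growth.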

Columns and labels:
Assay in all cases: NCI-60 cell line screen, 48 h
ACHN renal = system: ACHN renal
NCI/ADR-RES ovarian = system: NCI/ADR-RES ovarian
NCI-H522 lung = system: NCI-H522 lung
HS 578T breast = system: HS 578T breast
DU-145 prostate = system: DU-145 prostate
MDA-N = system: MDA-N
MOLT-4 leukemia = system: MOLT-4 leukemia
HCT-15 colon = system: HCT-15 colon
OVCAR-3 ovarian = system: OVCAR-3 ovarian
SK-MEL-28 melanoma = system: SK-MEL-28 melanoma
U251 CNS = system: U251 CNS
SF-295 CNS = system: SF-295 CNS
SF-268 CNS = system: SF-268 CNS
SK-OV-3 ovarian = system: SK-OV-3 ovarian
SW-620 colon = system: SW-620 colon
CCRF-CEM leukemia = system: CCRF-CEM leukemia
UO-31 renal = system: UO-31 renal
OVCAR-4 ovarian = system: OVCAR-4 ovarian
HOP-62 NSCLC = system: HOP-62 NSCLC
T-47D breast = system: T-47D breast

| SMILES | TGI (ACHN renal) | TGI (NCI/ADR-RES ovarian) | TGI (NCI-H522 lung) | TGI (HS 578T breast) | TGI (DU-145 prostate) | TGI (MDA-N) | TGI (MOLT-4 leukemia) | TGI (HCT-15 colon) | TGI (OVCAR-3 ovarian) | TGI (SK-MEL-28 melanoma) | TGI (U251 CNS) | TGI (SF-295 CNS) | TGI (SF-268 CNS) | TGI (SK-OV-3 ovarian) | TGI (SW-620 colon) | TGI (CCRF-CEM leukemia) | TGI (UO-31 renal) | TGI (OVCAR-4 ovarian) | TGI (HOP-62 NSCLC) | TGI (T-47D breast) |
| --- | --- | --- | --- | --- | --- | --- | --- | --- | --- | --- | --- | --- | --- | --- | --- | --- | --- | --- | --- | --- |
| O=C(O)Cc1c(-c2ccc([N+](=O)[O-])cc2)c(=O)oc2cc(O)ccc12 | 91.8 µM | 54.6 µM | 91.3 µM | 71.9 µM | > 100 µM | > 100 µM | 26.8 µM | 75.7 µM | 46.2 µM | > 100 µM | 53.5 µM | 49.9 µM | > 100 µM | 90 µM | > 100 µM | 88.8 µM | 83.6 µM |  |  |  |
| C[C@@]1(O)C[C@@H](N2C(=O)O[C@@H](c3ccccc3)[C@H]2c2ccccc2)[C@@H]1COCc1ccccc1 | > 100 µM | 64.8 µM | 38.3 µM | 62.9 µM | > 100 µM | 38.5 µM | 26.4 µM | 84.3 µM | 46.1 µM | 44.5 µM | 32.9 µM | 41.3 µM | 48.1 µM |  | > 100 µM |  | 67.8 µM | > 100 µM | 75.3 µM |  |
| BrC1=CCC23CC=C(Br)[C@H]4CC2(COC3)C[C@@H]1O4 (stereo not given in full) | > 100 µM |  | 66.2 µM |  |  |  | 86 µM | > 100 µM | > 100 µM | 62.1 µM | > 100 µM | > 100 µM | 30.9 µM |  | > 100 µM | 79.5 µM | 82.4 µM | > 100 µM | > 100 µM |  |
| COc1ccc(/C=C2\CCC(CNc3ccc(S(N)(=O)=O)cc3)C2=O)cc1 (stereo not given) | 53.7 µM | > 100 µM | 10.6 µM | > 91.1 µM | > 88.1 µM |  | > 44.2 µM | 18.2 µM | 22.7 µM | 34.7 µM | 39.2 µM | > 100 µM | 54.4 µM | > 100 µM | 19.3 µM | 5.98 µM | 12.2 µM | > 81.2 µM | > 85.6 µM | 43.1 µM |
| O=S1(=O)OCCOS(=O)(=O)C1S(=O)(=O)c1ccc2ccccc2c1 | > 100 µM | > 100 µM |  |  | > 100 µM | > 100 µM | > 100 µM | > 100 µM | > 100 µM | > 100 µM | > 100 µM | > 100 µM |  |  | > 100 µM | > 100 µM | > 100 µM | > 100 µM | > 100 µM |  |
| S=c1nc(N2CCCCC2)c2cn[nH]c2[nH]1 | > 100 µM | > 100 µM | 41.4 µM | > 100 µM | > 100 µM |  |  | > 100 µM | > 100 µM | > 100 µM | > 100 µM | > 100 µM | > 100 µM |  | > 100 µM | > 100 µM | 77.9 µM | > 100 µM | > 100 µM | > 100 µM |
| CC(C)Oc1c(O)c2c3c(oc(=O)n3C=CC2c2ccccc2)c1OC(C)C (stereo not given) |  | > 100 µM |  |  | > 100 µM | > 100 µM | > 100 µM | 33.7 µM | 80.5 µM | 54.5 µM | 45.2 µM | 49.1 µM |  | > 100 µM | 82.8 µM |  | 37.2 µM | > 100 µM | > 100 µM | > 100 µM |
| COc1ccc(CCCCl)c(C2=NCCc3cc(OC)c(OC)cc32)c1 | > 100 µM | > 100 µM | > 100 µM | > 100 µM | > 100 µM |  | > 100 µM | > 100 µM | > 100 µM | > 100 µM | > 100 µM | > 100 µM | > 100 µM | > 100 µM | > 100 µM | > 100 µM | > 100 µM | > 100 µM | > 100 µM | > 100 µM |
| CCN(C(=O)N[C@@H](Cc1ccccc1)C(=O)N[C@@H](CC(C)C)C(=O)OC)c1ccccc1 | 51.3 µM | > 100 µM | 22.6 µM |  | 31.7 µM | > 100 µM | 44.2 µM | 34.5 µM | 72 µM | 32.6 µM | 72.7 µM | 84.3 µM |  | > 100 µM | 75 µM | > 100 µM | 33.3 µM | > 100 µM | 70.6 µM | > 100 µM |
| COC(=O)C1=C(C)NC(C)=C(C(=O)OC)C1c1ccccc1NO | > 100 µM | > 100 µM | > 100 µM | > 100 µM | > 100 µM |  | > 100 µM | > 100 µM | > 100 µM | > 100 µM | > 100 µM | > 100 µM | > 100 µM | > 100 µM | > 100 µM | > 100 µM | > 100 µM | > 100 µM | > 100 µM | > 100 µM |
| COc1c2cc(C(C)(C)C)cc1Cc1cccc(c1OCc1cccc([N+](=O)[O-])c1)Cc1cc(C(C)(C)C)cc(c1OC)Cc1cccc(c1OCc1cccc([N+](=O)[O-])c1)Cc1cc(C(C)(C)C)cc(c1OC)Cc1cccc(c1OCc1cccc([N+](=O)[O-])c1)C2 | > 50 µM | > 50 µM | > 50 µM |  | > 50 µM | > 50 µM | > 50 µM | > 50 µM | > 50 µM | > 50 µM | > 50 µM | > 50 µM | > 50 µM |  | > 50 µM | > 5 µM | > 50 µM |  | > 50 µM | > 50 µM |
| O=c1cc(-c2ccccc2)[nH]c2ccc(N3CCOCC3)cc12 | > 91 µM | > 100 µM | 0.404 µM | > 100 µM | > 32.9 µM |  | > 100 µM | > 100 µM | 39.2 µM | 44.7 µM | > 35.8 µM | 0.0773 µM | 15.8 µM | 22.4 µM | > 100 µM |  | > 100 µM | > 100 µM | 28.2 µM | > 100 µM |
| Cc1ccc(NCC(=O)N2CC(=O)Nc3ccccc32)c(C)c1 | > 100 µM |  | > 100 µM |  |  |  | > 100 µM | > 100 µM | > 100 µM | > 100 µM | > 100 µM | > 100 µM | > 100 µM | > 100 µM | > 100 µM | > 100 µM | > 100 µM | > 100 µM | > 100 µM |  |
